These results are taken from ChEMBL document CHEMBL6103565, “Current strategies in design and synthesis of antifungals hybrid and chimeric diazine derivatives” (Bioorg Med Chem, 2025).

In brackets after ≈: the same amount, converted by molar mass. Some results are limits rather than exact numbers.

Assay type in all cases: functional
For experiment [1], the system named is Aspergillus niger. The experiment can be described thus: Antifungal activity against Aspergillus niger assessed as zone of inhibition.
In experiment [2] the test system is Candida albicans. The experiment can be described thus: Antifungal activity against Candida albicans assessed as zone of inhibition.
For experiment [3], the system named is Candida albicans. Nature of the experiment: Antifungal activity against Candida albicans ATCC 10231 assessed as zone of inhibition incubated for 24 hrs by disc diffusion method. Background: A growth-free zone around the sample is the usual read-out of agar diffusion tests.
The test system of experiment [4] is Candida albicans. The experiment can be described thus: Antifungal activity against Candida albicans NRRL-Y477 assessed as zone of inhibition by disc diffusion method.
For experiment [5], the system named is Talaromyces purpureogenus. Nature of the experiment: Antifungal activity against Talaromyces purpureogenus assessed as zone of inhibition by disc diffusion method.
Experiment [6] concerns Aspergillus fumigatus. The experiment can be described thus: Antifungal activity against Aspergillus fumigatus assessed as reduction in fungal growth incubated for 72 hrs by agar well diffusion method.
The test system of experiment [7] is Candida albicans. The experiment can be described thus: Antifungal activity against Candida albicans ATCC 90028 assessed as growth inhibition incubated for 36 hrs by resazurin dye based assay.
The next experiment concerns Botrytis cinerea. Nature of the experiment: Antifungal activity against Botrytis cinerea assessed as reduction in fungal growth at 50 ug/ml relative to control.
A further experiment concerns Botryosphaeria dothidea. Nature of the experiment: Antifungal activity against Botryosphaeria dothidea assessed as reduction in fungal growth at 50 ug/ml relative to control.
In the next experiment the test system is Phomopsis. The experiment can be described thus: Antifungal activity against Phomopsis assessed as reduction in fungal growth at 50 ug/ml relative to control.
Experiment [8] relates to Candida albicans. The experiment can be described thus: Antifungal activity against azole-resistant Candida albicans ATCC 10231 assessed as reduction in fungal growth by XTT assay. For orientation: Tetrazolium dyes change colour on reduction, which living cells bring about.
Experiment [9] relates to Aspergillus niger. Nature of the experiment: Antifungal activity against Aspergillus niger assessed as zone of inhibition by disc diffusion method.
Experiment [10] deals with Candida albicans. Nature of the experiment: Antifungal activity against azole-resistant Candida albicans ATCC 10231 assessed as fungal growth inhibition incubated for 24 hrs by CLSI protocol based broth microdilution method. For orientation: Dilution methods test growth across graded concentrations, often in twofold steps.
Experiment [11] has as its system Aspergillus fumigatus. The experiment can be described thus: Antifungal activity against Aspergillus fumigatus assessed as reduction in fungal growth.
The next experiment concerns Cryptococcus neoformans. The experiment can be described thus: Antifungal activity against Cryptococcus neoformans.
Experiment [12] concerns Candida albicans. The experiment can be described thus: Antifungal activity against Candida albicans.
The test system of experiment [13] is Candida albicans. Nature of the experiment: Antifungal activity against azole-resistant Candida albicans ATCC 18804 assessed as fungal growth inhibition incubated for 24 hrs by CLSI protocol based broth microdilution method.
The next experiment relates to Nakaseomyces glabratus. The experiment can be described thus: Antifungal activity against Candida glabrata MTCC 3019 assessed as inhibition of fungal growth incubated for 24 hrs.
Experiment [14] deals with Candida albicans. Nature of the experiment: Antifungal activity against Candida albicans MTCC 7315 assessed as inhibition of fungal growth incubated for 24 hrs.
Another experiment deals with Candida parapsilosis. The experiment can be described thus: Antifungal activity against Candida parapsilosis MTCC 1744 assessed as inhibition of fungal growth incubated for 24 hrs. The settings on record: Lodderomyces parapsilosis.
The test system of experiment [15] is Candida albicans. Nature of the experiment: Antifungal activity against Candida albicans MTCC 4748 assessed as inhibition of fungal growth incubated for 24 hrs.
For experiment [16], the system named is Candida albicans. Nature of the experiment: Antifungal activity against Candida albicans MTCC 227 assessed as inhibition of fungal growth incubated for 24 hrs.
The test system of experiment [17] is Candida albicans. Nature of the experiment: Antifungal activity against Candida albicans MTCC 3018 assessed as inhibition of fungal growth incubated for 24 hrs.
The test system of the next experiment is Pichia kudriavzevii. Nature of the experiment: Antifungal activity against Pichia kudriavzevii MTCC 3020 assessed as inhibition of fungal growth incubated for 24 hrs.
Experiment [18] deals with Candida albicans. The experiment can be described thus: Antifungal activity against Candida albicans MTCC 1637 assessed as inhibition of fungal growth incubated for 24 hrs.
The test system of experiment [19] is Candida albicans. Nature of the experiment: Antifungal activity against Candida albicans MTCC 3017 assessed as inhibition of fungal growth incubated for 24 hrs.
For the next experiment, the system named is Candida tropicalis. The experiment can be described thus: Antifungal activity against Candida tropicalis assessed as zone of inhibition by disc diffusion method.
In experiment [20] the test system is Candida albicans. The experiment can be described thus: Antifungal activity against Candida albicans ATCC 10231 assessed as inhibition of mycelial growth relative to control.
Experiment [21] concerns Aspergillus niger. Nature of the experiment: Antifungal activity against Aspergillus niger ATCC 16404 assessed as inhibition of mycelial growth relative to control.

Regarding `O=C1NC(=O)C(=C2NN=C(Nc3nnc(-c4cc([N+](=O)[O-])cc([N+](=O)[O-])c4)s3)S2)C(=O)N1`, the “inhibition zone (IZ)” value with Aspergillus niger [1] is on record as 23 mm; in the experiment on Candida albicans [2], 25 mm.
Take `CCc1ccccc1/N=N/c1c(N)nn2c(-c3ccc(Cl)cc3)cc(-c3ccccc3)nc12`: the “inhibition zone (IZ)” value in the experiment with Candida albicans [3] was found to be 19 mm.
Regarding `CCc1ccccc1/N=N/c1c(N)nc2c(/N=N/c3ccccc3CC)cnn2c1N`, the “inhibition zone (IZ)” value in the experiment on Candida albicans [3] worked out at 21 mm.
For the compound `CCOC(=O)c1c(C)nc2sc3c(=O)[nH]cnc3c2c1-c1cccs1`, the “inhibition zone (IZ)” value (with Candida albicans [4]; in experiment [5]) was 25 mm throughout.
As a reminder, the MIC is the lowest concentration found to suppress growth. For `Cc1n[nH]c2c(C#N)c(=O)n(-c3ccc(N)cc3)nc12`, the MIC in the experiment on Aspergillus fumigatus [6] turned out to be 1.95 mg/L (≈ 7.32 µM).
For the compound `FC(F)(F)c1nnc2n1CCN(C(=S)Nc1ccc(Br)cc1)C2`, the minimal inhibitory concentration (MIC) in the experiment with Candida albicans [7] came out at 6.25 mg/L (≈ 15.4 µM).
A word on the inhibition: it is the drop in the measured response relative to a control, in per cent. For the compound `Cc1nc(Oc2ccc(C(=O)Nc3ccc(OC(F)(F)F)cc3)cc2)cc(C(F)(F)F)n1`, the results for the inhibition at 50 µg/mL with Botrytis cinerea, with Botryosphaeria dothidea and in the experiment on Phomopsis were 96.7%, 93.1% and 89%, respectively.
The like results for `Cc1cc(C)nc(Nc2ccccc2)n1` [PYRIMETHANIL] were, in that order, 82.8%, 84.4% and 85.1%.
Consider `O=C1N=C(n2[nH]c(=O)ccc2=O)S/C1=N\Nc1ccc(-c2ccc(N/N=C3/SC(n4[nH]c(=O)ccc4=O)=NC3=O)cc2)cc1`, for which the minimal inhibitory concentration (MIC) with Candida albicans [8] came to 3.1 mg/L (≈ 4.93 µM).
For `CCOC(=O)c1c(C)nc2sc3c(-n4nc(C)cc4C)ncnc3c2c1-c1cccs1`, the “inhibition zone (IZ)” value in the experiment with Aspergillus niger [9] is given as 24 mm; in [5], 25 mm.
In the case of `O=c1ccc(=O)n(-c2nc(-c3cc4ccccc4oc3=O)cs2)[nH]1`, in the experiment with Candida albicans [10], the MIC came out at 5.6 mg/L (≈ 16.5 µM).
As for `O=C(Nc1ccc(F)cc1)N1CCn2c(nnc2C(F)(F)F)C1`, the minimal inhibitory concentration (MIC) in the experiment with Candida albicans [7] came out at 6.25 mg/L (≈ 19 µM).
In the case of `O=C1CS/C(=N\c2nn(-c3ccccc3)nc2C(=O)Nc2cnccn2)N1`, the MIC with Aspergillus fumigatus [11] was under 209 mg/L.
Regarding `O=c1cc[nH]c(=O)n1N=C1CC(c2ccc(O)cc2)SC(c2ccc(O)cc2)C1` (centres undefined), the minimal inhibitory concentration (MIC) in the experiment on Cryptococcus neoformans turned out to be 4 mg/L (≈ 9.77 µM); against Candida albicans [12], 0.25 mg/L (≈ 0.611 µM).
In the case of `O=c1ccc(=O)n(-c2nc(-c3cccs3)cs2)[nH]1`, the minimum inhibitory concentration (MIC) was found to be 3.9 mg/L (≈ 14.1 µM) in the experiment on Candida albicans [10] and 1.9 mg/L (≈ 6.85 µM) with Candida albicans [13].
Turning to `Fc1ccc(-c2nnc3c4ccc(C(F)(F)F)nc4nc(-c4ccccc4)n23)c(Cl)c1`, the minimal inhibitory concentration (MIC) in the experiment on Nakaseomyces glabratus, in the experiment with Candida albicans [14], in the experiment on Candida parapsilosis, with Candida albicans [15], with Candida albicans [16] and in the experiment with Candida albicans [17] was 3.9 mg/L (≈ 8.79 µM) each time. Moreover, the MIC in the experiment with Pichia kudriavzevii, in the experiment with Candida albicans [18] and in the experiment with Candida albicans [19] was 3.9 mg/L (≈ 8.79 µM) in each case.
Turning to `CC1=NN(c2ccccc2)C2N=C3SCCN3C(c3ccc(O)cc3)C12` (centres undefined), the “inhibition zone (IZ)” value in the experiment on Aspergillus niger [9] was 24 mm; in the experiment on Candida tropicalis it was 26 mm.
As to `CCOc1ccccc1/N=N/c1c(N)nc2c(/N=N/c3ccccc3OCC)cnn2c1N`, the “inhibition zone (IZ)” value with Candida albicans [3] is on record as 21 mm.
Regarding `CC1=NN(c2ccccc2)C2N=C3SCCN3C(c3ccc(Cl)cc3)C12` (centres undefined), the entries for the “inhibition zone (IZ)” value in the experiment with Aspergillus niger [9] and with Candida tropicalis were 24 mm and 26 mm, respectively.
Take `CCCCCCCC(=O)O[C@@H]1[C@H](OC(=O)CCCCCCC)[C@@H](COC(c2ccccc2)(c2ccccc2)c2ccccc2)O[C@H]1n1ccc(=O)[nH]c1=O`: the “inhibition (INH)” value turned out to be 70% with Candida albicans [20] and 99% in the experiment with Aspergillus niger [21].
With `Clc1ccc(COC(Cn2ccnc2)c2ccc(Cl)cc2Cl)c(Cl)c1` (centres undefined) [MICONAZOLE], the minimum inhibitory concentration (MIC) with Nakaseomyces glabratus, in the experiment on Candida albicans [14], in the experiment on Candida parapsilosis, in the experiment with Candida albicans [15], with Candida albicans [16] and with Candida albicans [17] was 0.39 mg/L (≈ 0.937 µM) each time. The MIC in the experiment with Pichia kudriavzevii, in the experiment with Candida albicans [18] and with Candida albicans [19] was 0.39 mg/L (≈ 0.937 µM) throughout.
